Where two headings read alike, the source gives them in different places.
Columns and labels:
[1] = tested on: KYSE-150 (human oesophagus carcinoma); experiment: MTT cytotoxicity assay, KYSE-150; format: cell-based; conditions: 48 hrs treatment
Method: (§1) Cytotoxic activities of all compounds were evaluated by MTT assay using KYSE-150 (human oesophagus carcinoma), MKN-45 (human gastric aednocarcinoma), DLD-1 (human colorectal carcinoma cell line), Hep G2 (human hepatocellular carcinoma). […] 3ag, 3al, 3an, 3ea and 3ha also have the same inhibitory effect on different cell lines with IC50 value lower than 10 μM. Thus, except 3ac, 3ad, 3ae, 3ah, and 3ab, the other compounds all exert definitely anti-cancer effect.
(§2) In this study, all compounds were dissolved in dimethyl sulfoxide (DMSO) to make stock solutions and further diluted in culture medium for this experiment. Human cancer cell lines, including one gastric adenocarcinoma cell line (MKN-45), one colon carcinoma cell line (DLD-1), one esophageal carcinoma cell line (KYSE-150) and one hepatocellular carcinoma cell line (HepG2) were cultured in RPMI 1640 or DMEM medium, containing 10% fetal bovine serum and 1% antibiotics (Penicillin and strep). The cell lines were cultured at 37° C. in a humidified environment containing 5% CO2. To determine the effects of the compounds on cell viability, a standard colorimetric 3-(4,5-dimethylthiazol-2-yl)-2,5-diphenyltetrazolium bromide (MTT) assay was used to test the cell number. Cells were seeded in a 96-well plate (4×10^3 cells/well) and allowed to attach overnight. After the recovery, cells were treated with 1.56, 3.125, 6.25, 12.5, 25, 50 μM of compounds in culture medium for 48 hrs. Then, 20 μL of MTT (5 mg/mL stock in PBS) per well was added into the medium (200 μL) and incubated for 4 hrs at 37° C. Finally, the culture medium was removed and 200 μL of DMSO were added to dissolve the purple formazan crystals. Absorbance of the solution was measured using microplate reader spectrophotometer (Bio-Rad Laboratories, Inc., Hercules, Calif.) at a wavelength of 570 nm.

[2] = tested on: MKN-45 (human gastric aednocarcinoma); experiment: MTT cytotoxicity assay, MKN-45; format: cell-based; conditions: 48 hrs treatment
Method: as §1, §2

[3] = tested on: Hep G2 (human hepatocellular carcinoma); experiment: MTT cytotoxicity assay, Hep G2; format: cell-based; conditions: HepG2, 48 hrs treatment
Method: as §1, §2

[4] = tested on: DLD-1 (human colorectal carcinoma cell line); experiment: MTT cytotoxicity assay, DLD-1; format: cell-based; conditions: 48 hrs treatment
Method: as §1, §2

KYSE-150 cells [5] = experiment: Wound healing assay; format: cell-based, human; conditions: 48 h
Method: Original magnification, 5×.
Further, wound-healing assay was used to test whether those novel compounds could affect cell motility.
A wound-healing assay was performed as follows: cells were seeded in 12 wells plate at 50% confluence in completed medium. After 24 hrs seeding, the monolayer was wounded by scoring with a sterile plastic tip (1 mL), then washed several times with medium to remove cell debris and then incubated in conditioned medium in the absence or presence of tested compounds for various periods of time up to 48 h. […] Cell migration into the wound surface was monitored by Olympus IX71 microscopy and digitally photographed.

KYSE-150 cells [6] = experiment: Wound healing assay; format: cell-based, human
[7] = tested on: KYSE-150, MKN-45, DLD-1, Hep G2; experiment: MTT cytotoxicity assay, summary over the test cell lines; format: cell-based; conditions: Homo sapiens, summary of Table 6
Method: as §1, §2

[8] = all test cell lines, read-out: IC50, cell growth-inhibiting effect against all test cell lines (below or near)
[9] = on different (not all) cell lines, read-out: IC50, inhibitory effect on different cell lines

O=C(Cc1ccc2ccccc2c1)c1ccccc1 [Compound 3aa, 2-(naphthalen-2-yl)-1-phenylethanone]
IC50 [1]: 10.9 µM
IC50 [2]: 15.6 µM
IC50 [3]: 20.8 µM
IC50 [4]: 12.4 µM
cell migration into the wound (KYSE-150 cells [5]; 10 μM): did not migrate into the wound
melting point: 122 to 124 °C
viability of KYSE-150 cells compared to controls (KYSE-150 cells [6]; 10 μM): did not alter the viability

COc1ccc(C(=O)Cc2ccc3ccccc3c2)cc1 [Compound 3ab, 1-(4-methoxyphenyl)-2-(naphthalen-2-yl) ethanone]
IC50 [1]: 5.19 µM
IC50 [2]: 10.1 µM
IC50 [3]: 7.63 µM
IC50 [4]: 7.89 µM
cell migration into the wound (KYSE-150 cells [5]; 10 μM): did not migrate into the wound
IC50 [7, 8]: ~10 µM
melting point: 125 to 127 °C
viability of KYSE-150 cells compared to controls (KYSE-150 cells [6]; 10 μM): did not alter the viability

COc1ccccc1C(=O)Cc1ccc2ccccc2c1 [Compound 3ac, 1-(2-methoxyphenyl)-2-(naphthalen-2-yl) ethanone]
IC50 [1]: > 50 µM
IC50 [2]: > 50 µM
IC50 [3]: > 50 µM
IC50 [4]: > 50 µM
melting point: 100 to 102 °C

COc1cccc(C(=O)Cc2ccc3ccccc3c2)c1 [Compound 3ad, 1-(3-methoxyphenyl)-2-(naphthalen-2-yl) ethanone]
IC50 [1]: > 50 µM
IC50 [2]: > 50 µM
IC50 [3]: > 50 µM
IC50 [4]: > 50 µM
melting point: 102 to 103 °C

COc1cc(OC)cc(C(=O)Cc2ccc3ccccc3c2)c1 [Compound 3ae, 1-(3,5-dimethoxyphenyl)-2-(naphthalen-2-yl) ethanone]
IC50 [1]: > 50 µM
IC50 [2]: > 50 µM
IC50 [3]: 42.8 µM
IC50 [4]: > 50 µM
melting point: 70 to 71 °C

O=C(Cc1ccc2ccccc2c1)c1ccc(F)cc1 [Compound 3af, 1-(4-fluorophenyl)-2-(naphthalen-2-yl) ethanone]
IC50 [1]: 2.56 µM
IC50 [2]: 4.04 µM
IC50 [3]: 4.23 µM
IC50 [4]: 5.27 µM
IC50 [7, 8]: ~10 µM
melting point: 145 to 147 °C

O=C(Cc1ccc2ccccc2c1)c1ccc(Oc2ccccc2)cc1 [Compound 3ag, 2-(naphthalen-2-yl)-1-(4-phenoxyphenyl) ethanone]
IC50 [1]: 1.19 µM
IC50 [2]: > 50 µM
IC50 [3]: 4.84 µM
IC50 [4]: 4.95 µM
IC50 [7, 9]: < 10 µM
melting point: 139 to 141 °C

O=C(Cc1ccc2ccccc2c1)c1ccc(OC(F)(F)F)cc1 [Compound 3ah, 2-(naphthalen-2-yl)-1-(4-(trifluoromethoxy)phenyl) ethanone]
IC50 [1]: > 50 µM
IC50 [2]: > 50 µM
IC50 [3]: > 50 µM
IC50 [4]: > 50 µM
melting point: 153 to 154 °C

O=C(Cc1ccc2ccccc2c1)c1ccc(Br)cc1 [Compound 3ai, 1-(4-bromophenyl)-2-(naphthalen-2-yl) ethanone]
IC50 [1]: 2.02 µM
IC50 [2]: 4.45 µM
IC50 [3]: 1.32 µM
IC50 [4]: 3.3 µM
IC50 [7, 8]: ~10 µM
melting point: 157 to 159 °C

Cc1ccc(C(=O)Cc2ccc3ccccc3c2)cc1 [Compound 3aj, 2-(naphthalen-2-yl)-1-(p-tolyl) ethanone]
IC50 [1]: 18.4 µM
IC50 [2]: 12 µM
IC50 [3]: > 50 µM
IC50 [4]: > 50 µM
melting point: 144 to 146 °C

O=C(Cc1ccc2ccccc2c1)c1ccc(CO)cc1 [Compound 3ak, 1-(4-(hydroxymethyl)phenyl)-2-(naphthalen-2-yl) ethanone]
IC50 [1]: 31.3 µM
IC50 [2]: > 50 µM
IC50 [3]: > 50 µM
IC50 [4]: 48.2 µM
melting point: 97 to 98 °C

O=C(Cc1ccc2ccccc2c1)c1ccc(C(F)(F)F)cc1 [Compound 3al, 2-(naphthalen-2-yl)-1-(4-(trifluoromethyl)phenyl) ethanone]
IC50 [1]: 4.75 µM
IC50 [2]: > 50 µM
IC50 [3]: 29.9 µM
IC50 [4]: 37.4 µM
IC50 [7, 9]: < 10 µM
melting point: 179 to 181 °C

N#Cc1ccc(C(=O)Cc2ccc3ccccc3c2)cc1 [Compound 3am, 4-(2-(naphthalen-2-yl)acetyl) benzonitrile]
IC50 [1]: 33.5 µM
IC50 [2]: > 50 µM
IC50 [3]: > 50 µM
IC50 [4]: > 50 µM
melting point: 152 to 154 °C

[2H]C(C(=O)c1ccccc1)c1ccc2ccccc2c1 (stereo not drawn) [Compound 3an, 2-(naphthalen-2-yl)-1-phenylethanone-2-D]
IC50 [1]: 7.43 µM
IC50 [2]: 43.1 µM
IC50 [3]: 22 µM
IC50 [4]: > 50 µM
cell migration into the wound (KYSE-150 cells [5]; 10 μM): did not migrate into the wound
IC50 [7, 9]: < 10 µM
melting point: 129 to 130 °C
viability of KYSE-150 cells compared to controls (KYSE-150 cells [6]; 10 μM): did not alter the viability

COc1ccc(OC)c2cc(CC(=O)c3ccccc3)ccc12 [Compound 3ba, 2-(5,8-dimethoxynaphthalen-2-yl)-1-phenylethanone]
IC50 [1]: > 50 µM
IC50 [2]: > 50 µM
IC50 [3]: > 50 µM
IC50 [4]: > 50 µM
melting point: 145 to 146 °C

Cc1ccc(C)c2cc(CC(=O)c3ccccc3)ccc12 [Compound 3ca, 2-(5,8-dimethylnaphthalen-2-yl)-1-phenylethanone]
IC50 [1]: 19.2 µM
IC50 [2]: > 50 µM
IC50 [3]: > 50 µM
IC50 [4]: > 50 µM
melting point: 123 to 124 °C

Cc1cc2ccc(CC(=O)c3ccccc3)cc2cc1C [Compound 3da, 2-(6,7-dimethylnaphthalen-2-yl)-1-phenylethanone]
IC50 [1]: 7.69 µM
IC50 [2]: 3.71 µM
IC50 [3]: > 50 µM
IC50 [4]: 0.78 µM
cell migration into the wound (KYSE-150 cells [5]; 5 μM): did not migrate into the wound
melting point: 142 to 144 °C
viability of KYSE-150 cells compared to controls (KYSE-150 cells [6]; 5 μM): did not alter the viability

O=C(Cc1ccc2cc(Br)c(Br)cc2c1)c1ccccc1 [Compound 3ea, 2-(6,7-dibromonaphthalen-2-yl)-1-phenylethanone]
IC50 [1]: 2.38 µM
IC50 [2]: 12.1 µM
IC50 [3]: 16.1 µM
IC50 [4]: 2.7 µM
cell migration into the wound (KYSE-150 cells [5]; 10 μM): did not migrate into the wound
IC50 [7, 9]: < 10 µM
melting point: 152 to 154 °C
viability of KYSE-150 cells compared to controls (KYSE-150 cells [6]; 10 μM): did not alter the viability

C(#Cc1ccc2cc3c(cc2c1)OCCO3)c1ccccc1 [Compound 3ga, 7-(phenylethynyl)-2,3-dihydronaphtho [2,3-b][1,4] dioxine]
IC50 [1]: 24.7 µM
IC50 [2]: 35.1 µM
IC50 [3]: 45.2 µM
IC50 [4]: 19.7 µM
cell migration into the wound (KYSE-150 cells [5]; 10 μM): did not migrate into the wound
melting point: 130 to 132 °C
viability of KYSE-150 cells compared to controls (KYSE-150 cells [6]; 10 μM): did not alter the viability

C(#Cc1ccc2cc3c(cc2c1)OCO3)c1ccccc1 [Compound 3ha, 6-(phenylethynyl) naphtho [2,3-d][1,3] dioxole]
IC50 [1]: 3.52 µM
IC50 [2]: 20.8 µM
IC50 [3]: 0.65 µM
IC50 [4]: 0.55 µM
IC50 [7, 9]: < 10 µM
melting point: 154 to 155 °C

— patent publication US9783519B2, “Palladium/silver co-catalyzed tandem reactions synthesis of phenylacetophenone derivatives by oxabenzonorbornadienes with terminal alkynes and their anti-tumor or anti-cancer activities” (Hong Kong Baptist University, priority 2015, dated 2017)
